The values that follow come from PMC4213485, “Relevant and selective activity of Pancratium illyricum L. against Candida albicans clinical isolates: a combined effect on yeast growth and virulence” (BMC Complementary and Alternative Medicine, 2014).

The target of the assay is T1, Clostridium hystolyticum collagenase (EC.3.4.23.3).
T1 construct: gene colH
Description: FALGPA hydrolysis, absorbance at […] nm. It is filed as biochemical, Hathewaya histolytica. Particulars: FALGPA substrate (2 mM stock), 50 mM Tricine, 10 mM CaCl2, 400 mM NaCl, pH 7.5, 15 min preincubation.

`O=C(O[C@@H]1Cc2c(O)cc(O)cc2O[C@@H]1c1cc(O)c(O)c(O)c1)c1cc(O)c(O)c(O)c1` [EGCG] returned a concentration for half-maximal inhibition (IC50) of 9.45 ± 0.5 µM.

The IC50 is the midpoint of a concentration-inhibition curve.
